Assay results as given in US20080044404A1, “Annexin V for Preventing Atherothrombosis and Plaque Rupture” (priority 2004, published 2008).
Several values for one entry are separate records, joined by “and”; a condition that tells them apart may be missing. Identical values can stand only once. Like-named read-outs stand apart in the source and are kept apart here.

Experiments:
[1] = test system: human umbilical endothelia cells (HUVECs); assay: Annexin V binding to HUVECs after 24 hrs culture with high aPLs titer serum pre-incubated with test substance, flow cytometry; format: cell-based; details: for Effect on Annexin V binding to endothelial cells: preincubation of serum known to decrease binding; for Geo Mean (fluorescence) / Mean (fluorescence) / Median (fluorescence) / Peak Ch / % Gated (Annexin V positive region): file '100' 24 hrs on HUVEC; for Mean % of APS, Av / Median % of APS, Av: average of three; for Mean % of APS, Av / Median % of APS, Av / Mean % of APS / Median % of APS: 24 hrs culture; for Mean % of APS / Median % of APS: single experiments
Method: Cryopreserved pooled human umbilical venous endothelial cells (HUVECs) at passage 2 were purchased from Cascade Biologics, Inc. (Portland, Oreg., USA) the cultures were maintained in EGM™ phenol red-free medium (Clonetics, San Diego, Calif., USA), containing 2% of fetal bovine serum and supplements. The cells were incubated in 75 cm2 flasks (TPP, AG, Trasadingen, Switzerland) under humidified 5% CO2 in 37° C. conditions. All experiments were performed at passage 3 to 4. HUVECs were seeded at 2×10^4 cells/ml density in 12-well plates (NUNC, Inc, Naperville, Ill., USA) for flow cytometry analysis; at density of 1×10^4 cells/well/100 μl in 96-well plate (TPP) for MTT assay; at 8×10^3 cells/ml. density in 24-well plates (NUNC) for DNA fragmentation ELISA. After allowing 12-24 hours for attachment and careful washing with serum-free medium (SFM), the cells were made quiescent in SFM for at least 12 hrs prior to treatment. Heparin-preserved plasma from the study groups was added to the monolayer at concentration of 10% in SFM.
The cells were harvested non-enzymatically with Cell Dissociation Solution (CDS; Sigma-Aldrich, St. Louis, Mo., USA). HUVECs were carefully pooled with supernatants, to exclude selective loss of detached floating EC, and centrifuged at 1200 rpm for 7 min. After resuspension in 100 μl of Annexin V-binding buffer (Molecular Probes Inc, Eugene, Oreg., USA) samples were stained with 5 mg/ml of Annexin V-FITC (Mol. Probes) and incubated for 15 min on ice. Shortly before acquisition 1 mg/ml of propidium iodide (PI; R&DSystems Europe Ltd, Abingdon, UK) was added. Analysis was performed on a FACScan flow cytometer (BD Biosciences, San Jose, Calif., USA) equipped with CellQuest™ software. During acquisition a gate was set to exclude events smaller than 230 on linear FCS and SSC scale. For each sample 10000 events were collected.
Heparin-preserved plasma with high capacity to inhibit Annexin V binding was added to HUVECs monolayer at concentration of 10% in SFM. After 24 hrs cells were harvested with Cell Dissociation Solution (CDS; Sigma-Aldrich, St. Louis, Mo., USA) and carefully pooled with supernatants, to exclude selective loss of detached floating cells, centrifugation at 1200 rpm for 7 min followed. After resuspension in 100 μl of annexin V-binding buffer (Molecular Probes Inc, Eugene, Oreg., USA) samples were stained with 2 μl of 5 mg/ml annexin V-FITC (Molecular Probes) and incubated for 15 min on ice. Shortly before acquisition 1 mg/ml of propidium iodide (PI; a vital dye; R&DSystems Europe Ltd, Abingdon, UK) was added. Analysis was performed as described above.
The frequency of HUVECs positive for Annexin V staining was determined either as percentage of annexin V^+/PI^− cells on a bivariate dot plot or percentage of Annexin V^+ cells based on a histogram. Annexin V-binding to HUVECs in the presence of serum known to decrease binding and preincubated with IVIG was determined.

[2] = experimental animals; cited from earlier work
[3] = humans; cited from earlier work
[4] = Serum binding to antigen after preincubation of serum with antigen; details: preincubation of serum with high capacity to induce decreased binding
Text: Polysorp F96 microtiter immuno-plates were purchased from Nunc (Roskilde Denmark), PC-BSA (Phosphorylcholine-Bovine Serum Albumin) was purchased from Biosearch Technologies, INC (USA). Bovine serum albumin (BSA), Alkaline phosphatase conjugated goat anti-human IgG (r-chain specific), Alkaline phosphatase conjugated goat anti-human IgM (u-chain specific), PNPP(Alkaline phosphatase substrate), were obtained from Sigma (St. Louis, Mo., USA). For example, IgG and IgM antibodies to PC-BSA were determined by enzyme-linked immunosorbent assay (ELISA). Pooled serum from 17 antiphospholipid syndrome patients was used as an internal standard and tested on every plate. […] F96 microtiter polysorp plate was therefore coated with PC-BSA (10 μg/ml) 50 μl/well in PBS. Coated plates were incubated overnight at 4° C. After five washings with PBS, the plates were blocked with 2% BSA-PBS for 2 h at room temperature and washed as described above. Serum samples were diluted (1:30) in 0.2% BSA-PBS and added at 50 μl/well.

## C[N+](C)(C)CCOP(=O)(O)O [PC, phosphorylcholine]
[1]
  Effect on Annexin V binding to endothelial cells: no significant effect

## tetanus toxoid
[1]; all events (100.00 % gated)
  Geo Mean (fluorescence): 47.62
  Mean (fluorescence): 155.14
  Median (fluorescence): 113.42
  Peak Ch: 1
[1]; second histogram region
  % Gated (Annexin V positive region): 66.69%
  Geo Mean (fluorescence): 173.93
  Mean (fluorescence): 230.12
  Median (fluorescence): 212.88
  Peak Ch: 222

## Annexin V: Annexin V protein, binds calcium and negatively charged phospholipids
[2]
  half-life in the circulation: 5 to 15 min
[3]
  half-life in the circulation: short half-life

## CCCCCCCCCCCCCCCCOC[C@H](COP(=O)([O-])OCC[N+](C)(C)C)OC(C)=O [PAF]
[4]
  Serum binding to antigen: decreased serum binding to antigen
[1]; 10 μg/ml
  Mean % of APS, Av: 135 % of APS
  Median % of APS, Av: 132 % of APS
  Mean % of APS: 100 % of APS and 155.6 % of APS and 149.8 % of APS
  Median % of APS: 99 % of APS and 134 % of APS and 164 % of APS
[1]; 100 μg/ml
  Mean % of APS, Av: 137 % of APS
  Median % of APS, Av: 136 % of APS
  Mean % of APS: 151 % of APS and 122 % of APS and 139 % of APS
  Median % of APS: 145 % of APS and 116 % of APS and 147 % of APS
[1]
  Effect on Annexin V binding to endothelial cells: restored Annexin V binding

## lysophosphatidylcholine [Lyso PC]
[4]
  Serum binding to antigen: decreased serum binding to antigen
[1]; 10 μg/ml
  Mean % of APS, Av: 150 % of APS
  Median % of APS, Av: 146 % of APS
  Mean % of APS: 123.6 % of APS and 156.9 % of APS and 169.5 % of APS
  Median % of APS: 121.88 % of APS and 138.23 % of APS and 178.5 % of APS
[1]; 100 μg/ml
  Mean % of APS, Av: 156 % of APS
  Median % of APS, Av: 155 % of APS
  Mean % of APS: 158.1 % of APS and 114.7 % of APS and 195.12 % of APS
  Median % of APS: 175.39 % of APS and 115.4 % of APS and 174.65 % of APS
[1]; all events (100.00 % gated)
  Geo Mean (fluorescence): 62.95
  Mean (fluorescence): 275.37
  Median (fluorescence): 153.99
  Peak Ch: 1
[1]; second histogram region
  % Gated (Annexin V positive region): 67.03%
  Geo Mean (fluorescence): 268.96
  Mean (fluorescence): 408.50
  Median (fluorescence): 352.27
  Peak Ch: 453
[1]
  Effect on Annexin V binding to endothelial cells: restored Annexin V binding

## phosphatidylserine
[4]
  Serum binding to antigen: decreased serum binding to antigen
[1]
  Effect on Annexin V binding to endothelial cells: restored Annexin V binding
